Data from ChEMBL document CHEMBL3352575, “Synthesis, in vitro and in vivo antitumor activity of pyrazole-fused 23-hydroxybetulinic acid derivatives” (Bioorg Med Chem Lett, 2015).

Key:
Assay type in all cases: functional, cell-based
[1] = Antiproliferative activity against human HL60 cells after 72 hrs by MTT assay; conditions: HL-60, 72 h
HeLa = test: Antiproliferative activity against human HeLa cells after 72 hrs by MTT assay
[2] = Antiproliferative activity against human Bel7402 cells after 72 hrs by MTT assay; conditions: Bel-7402, 72 h
[3] = Antiproliferative activity against human SF763 cells after 72 hrs by MTT assay; conditions: SF763, 72 h
B16 = test: Antiproliferative activity against mouse B16 cells after 72 hrs by MTT assay; conditions: B16, 72 h

IC50 (HeLa) [µM] | IC50 (B16) [µM] | SMILES | IC50 [1] [µM] | IC50 [2] [µM] | IC50 [3] [µM]
16.1 | 13 | C=C(C)[C@@H]1CC[C@]2(C(=O)OCc3ccccc3)CC[C@]3(C)[C@H](CC[C@@H]4[C@@]5(C)Cc6c[nH]nc6[C@@](C)(CO)[C@@H]5CC[C@]43C)[C@@H]12 | 20.1 | 13.9 | 11.7
30.9 | 28 | C=C(C)[C@@H]1CC[C@]2(C(=O)OCc3ccccc3)CC[C@]3(C)[C@H](CC[C@@H]4[C@@]5(C)Cc6cn(C(C)=O)nc6[C@@](C)(COC(C)=O)[C@@H]5CC[C@]43C)[C@@H]12 | 33.6 | 26.7 | 28.4
33.8 | 37.4 | C=C(C)[C@@H]1CC[C@]2(C(=O)O)CC[C@]3(C)[C@H](CC[C@@H]4[C@@]5(C)Cc6cn(C(C)=O)nc6[C@@](C)(COC(C)=O)[C@@H]5CC[C@]43C)[C@@H]12 | 39.1 | 30.7 | 31.5
17.8 | 15.3 | C=C(C)[C@@H]1CC[C@]2(C(=O)O)CC[C@]3(C)[C@H](CC[C@@H]4[C@@]5(C)Cc6c[nH]nc6[C@@](C)(COC(C)=O)[C@@H]5CC[C@]43C)[C@@H]12 | 25.1 | 17.1 | 14.1
21.1 | 19.8 | C=C(C)[C@@H]1CC[C@]2(C(=O)O)CC[C@]3(C)[C@H](CC[C@@H]4[C@@]5(C)Cc6c[nH]nc6[C@@](C)(CO)[C@@H]5CC[C@]43C)[C@@H]12 | 29.1 | 21 | 20.8
32.6 | 30.2 | C=C(C)[C@@H]1CC[C@]2(C(=O)OCC)CC[C@]3(C)[C@H](CC[C@@H]4[C@@]5(C)Cc6cn(C(C)=O)nc6[C@@](C)(COC(C)=O)[C@@H]5CC[C@]43C)[C@@H]12 | 40.2 | 33.7 | 29.4
40.4 | 35.7 | C=C(C)[C@@H]1CC[C@]2(C(=O)OCC(=O)OCC)CC[C@]3(C)[C@H](CC[C@@H]4[C@@]5(C)Cc6cn(C(C)=O)nc6[C@@](C)(COC(C)=O)[C@@H]5CC[C@]43C)[C@@H]12 | 45.6 | 36 | 37.6
27.4 | 19.8 | C=CCOC(=O)[C@]12CC[C@@H](C(=C)C)[C@@H]1[C@H]1CC[C@@H]3[C@@]4(C)Cc5cn(C(C)=O)nc5[C@@](C)(COC(C)=O)[C@@H]4CC[C@@]3(C)[C@]1(C)CC2 | 32.3 | 23.1 | 19.5
16.2 | 16.1 | C=C(C)[C@@H]1CC[C@]2(C(=O)OCC)CC[C@]3(C)[C@H](CC[C@@H]4[C@@]5(C)Cc6c[nH]nc6[C@@](C)(CO)[C@@H]5CC[C@]43C)[C@@H]12 | 21.1 | 15.2 | 13.3
19.5 | 18 | C=CCOC(=O)[C@]12CC[C@@H](C(=C)C)[C@@H]1[C@H]1CC[C@@H]3[C@@]4(C)Cc5c[nH]nc5[C@@](C)(CO)[C@@H]4CC[C@@]3(C)[C@]1(C)CC2 | 24.3 | 17.8 | 18.7
20 | 18.9 | C=C(C)[C@@H]1CC[C@]2(C(=O)O[C@@H]3O[C@H](CO)[C@@H](O)[C@H](O)[C@H]3O)CC[C@]3(C)[C@H](CC[C@@H]4[C@@]5(C)Cc6c[nH]nc6[C@@](C)(COC(C)=O)[C@@H]5CC[C@]43C)[C@@H]12 | 28.5 | 14.1 | 20.1
10 | 7.89 | C=C(C)[C@@H]1CC[C@]2(C(=O)N3CCOCC3)CC[C@]3(C)[C@H](CC[C@@H]4[C@@]5(C)Cc6c[nH]nc6[C@@](C)(COC(C)=O)[C@@H]5CC[C@]43C)[C@@H]12 | 9.85 | 10.2 | 8.45
21.2 | 18.9 | C=C(C)[C@@H]1CC[C@]2(C(=O)NCC(=O)OC)CC[C@]3(C)[C@H](CC[C@@H]4[C@@]5(C)Cc6c[nH]nc6[C@@](C)(COC(C)=O)[C@@H]5CC[C@]43C)[C@@H]12 | 20.9 | 19.3 | 17.7
40.1 | 33.8 | C=C(C)[C@@H]1CC[C@]2(C(=O)OCCO)CC[C@]3(C)[C@H](CC[C@@H]4[C@@]5(C)Cc6cn(C(C)=O)nc6[C@@](C)(COC(C)=O)[C@@H]5CC[C@]43C)[C@@H]12 | 43.2 | 34.4 | 32.1
28 | 22.5 | C=C(C)[C@@H]1CC[C@]2(C(=O)Oc3ccc(C#N)cc3)CC[C@]3(C)[C@H](CC[C@@H]4[C@@]5(C)Cc6cn(C(C)=O)nc6[C@@](C)(COC(C)=O)[C@@H]5CC[C@]43C)[C@@H]12 | 31.3 | 18.1 | 23.4
35.5 | 31.1 | C=C(C)[C@@H]1CC[C@]2(C(=O)N3CCOCC3)CC[C@]3(C)[C@H](CC[C@@H]4[C@@]5(C)Cc6c[nH]nc6[C@@](C)(CO)[C@@H]5CC[C@]43C)[C@@H]12 | 39 | 39.4 | 33.7
32.7 | 30.8 | C=C(C)[C@@H]1CC[C@]2(C(=O)NCC(=O)O)CC[C@]3(C)[C@H](CC[C@@H]4[C@@]5(C)Cc6c[nH]nc6[C@@](C)(CO)[C@@H]5CC[C@]43C)[C@@H]12 | 34.9 | 36.1 | 27.4
40 | 38.2 | C=C(C)[C@@H]1CC[C@]2(C(=O)OCc3ccccc3)CC[C@]3(C)[C@H](CC[C@@H]4[C@@]5(C)Cc6cn(CC)nc6[C@@](C)(CO)[C@@H]5CC[C@]43C)[C@@H]12 | 40.1 | 45.8 | 39.6
26.4 | 20.1 | C=CCn1cc2c(n1)[C@@](C)(CO)[C@@H]1CC[C@]3(C)[C@H](CC[C@@H]4[C@H]5[C@H](C(=C)C)CC[C@]5(C(=O)OCc5ccccc5)CC[C@]43C)[C@@]1(C)C2 | 31.1 | 29.6 | 21.1
37 | 32.9 | C=C(C)[C@@H]1CC[C@]2(C(=O)OCc3ccccc3)CC[C@]3(C)[C@H](CC[C@@H]4[C@@]5(C)Cc6cn(CC(=O)OCC)nc6[C@@](C)(CO)[C@@H]5CC[C@]43C)[C@@H]12 | 39.1 | 43 | 33
58.8 | 42.4 | C=C(C)[C@@H]1CC[C@]2(C(=O)O)CC[C@]3(C)[C@H](CC[C@@H]4[C@@]5(C)Cc6cn(CC)nc6[C@@](C)(CO)[C@@H]5CC[C@]43C)[C@@H]12 | 47 | 50.3 | 44.1
54.1 | 44.3 | C=C(C)[C@@H]1CC[C@]2(C(=O)O)CC[C@]3(C)[C@H](CC[C@@H]4[C@@]5(C)Cc6cn(CCC)nc6[C@@](C)(CO)[C@@H]5CC[C@]43C)[C@@H]12 | 45.8 | 48 | 41
47.2 | 29.4 | C=C(C)[C@@H]1CC[C@]2(C(=O)O)CC[C@]3(C)[C@H](CC[C@@H]4[C@@]5(C)Cc6cn(CC(=O)OCC)nc6[C@@](C)(CO)[C@@H]5CC[C@]43C)[C@@H]12 | 49.8 | 40.6 | 35.9
59.9 | 39.7 | C=C(C)[C@@H]1CC[C@]2(C(=O)O)CC[C@]3(C)[C@H](CC[C@@H]4[C@@]5(C)Cc6cn(CC(=O)O)nc6[C@@](C)(CO)[C@@H]5CC[C@]43C)[C@@H]12 | 46.3 | 50.2 | 30.2
24.2 | 19.4 | C=C(C)[C@@H]1CC[C@]2(C(=O)OCC)CC[C@]3(C)[C@H](CC[C@@H]4[C@@]5(C)Cc6cn(CC)nc6[C@@](C)(COC(C)=O)[C@@H]5CC[C@]43C)[C@@H]12 | 28.1 | 30.2 | 19.4
27.3 | 20.1 | C=CCOC(=O)[C@]12CC[C@@H](C(=C)C)[C@@H]1[C@H]1CC[C@@H]3[C@@]4(C)Cc5cn(CC=C)nc5[C@@](C)(COC(C)=O)[C@@H]4CC[C@@]3(C)[C@]1(C)CC2 | 30.8 | 33.5 | 22
38.2 | 29.3 | C=C(C)[C@@H]1CC[C@]2(C(=O)OCC(=O)OCC)CC[C@]3(C)[C@H](CC[C@@H]4[C@@]5(C)Cc6cn(CC(=O)OCC)nc6[C@@](C)(COC(C)=O)[C@@H]5CC[C@]43C)[C@@H]12 | 35.1 | 39.2 | 34
32.1 | 24.9 | C=CCOC(=O)[C@]12CC[C@@H](C(=C)C)[C@@H]1[C@H]1CC[C@@H]3[C@@]4(C)Cc5cn(CC=C)nc5[C@@](C)(CO)[C@@H]4CC[C@@]3(C)[C@]1(C)CC2 | 33.4 | 38.8 | 25.3
50 | 36 | C=C(C)[C@@H]1CC[C@]2(C(=O)OCC(=O)O)CC[C@]3(C)[C@H](CC[C@@H]4[C@@]5(C)Cc6cn(CC(=O)O)nc6[C@@](C)(CO)[C@@H]5CC[C@]43C)[C@@H]12 | 44.8 | 47.6 | 41.8
 |  | COc1cccc2c1C(=O)c1c(O)c3c(c(O)c1C2=O)C[C@@](O)(C(=O)CO)C[C@@H]3O[C@H]1C[C@H](N)[C@H](O)[C@H](C)O1 [DOXORUBICIN] |  | 0.22 | 
